Assay results: US10450306B2, “Isoxazole analogs as FXR agonists and methods of use thereof” (Enanta Pharmaceuticals, Inc., priority 2016, dated 2019)

Target: T1, human FXR (NR1H4) (Homo sapiens, UniProt Q96RI1)
T1 construct: host or cells: CHO (Chinese hamster ovary) reporter cells
T1 sequence (Q96RI1 1-486): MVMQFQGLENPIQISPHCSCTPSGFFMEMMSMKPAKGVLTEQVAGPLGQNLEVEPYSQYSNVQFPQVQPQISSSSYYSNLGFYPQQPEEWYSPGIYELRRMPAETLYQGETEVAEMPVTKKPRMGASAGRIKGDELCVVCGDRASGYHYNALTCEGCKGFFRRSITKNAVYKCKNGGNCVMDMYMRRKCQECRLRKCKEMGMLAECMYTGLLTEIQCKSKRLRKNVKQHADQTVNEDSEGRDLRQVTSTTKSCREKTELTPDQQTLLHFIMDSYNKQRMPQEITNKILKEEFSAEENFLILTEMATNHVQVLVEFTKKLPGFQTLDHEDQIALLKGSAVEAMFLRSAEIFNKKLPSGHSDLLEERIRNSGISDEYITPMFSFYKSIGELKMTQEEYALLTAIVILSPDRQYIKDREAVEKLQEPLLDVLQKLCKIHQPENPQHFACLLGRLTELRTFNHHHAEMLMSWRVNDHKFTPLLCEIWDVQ
Experiment: Human FXR (NR1H4) Assay: Gal4 promoter driven luciferase reporter transactivation in CHO cells (Indigo Bioscience kit IB00601); for Efficacy (%): efficacy normalized to CDCA set as 100%
Assay type: cell-based
Conditions: for Emax: CHO, read-out: Efficacy (%); for EC50: Human FXR (NR1H4) reporter assay, potency ranges
In short: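 CHO reporter cells expressing human FXR with an FXR-responsive promoter-driven luciferase were treated with compound dose series at 0.2% DMSO for 22 h at 37 °C. Luciferase activity was then read by luminescence as the measure of FXR activation.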

Question: For `CC(C)Oc1cc(C(=O)NS(=O)(=O)C2(C)CC2)cc2sc(N3C4CCC3CC(NCc3c(-c5c(Cl)cccc5Cl)noc3C3CC3)C4)nc12` (stereo not drawn) [Example 400-18], which Emax is on record?
Answer: Its Emax is 98%.

Question: What about the EC50 of the same molecule?
Answer: Its EC50 is under 1 nM.

Question: Which results are given for `O=C(O)c1cc2sc(N3C4CCC3CC(NCc3c(-c5c(Cl)cccc5Cl)noc3C3CC3)C4)nc2cc1F` (stereo not drawn) [Example 200-16]?
Answer: Emax: 109%; EC50: 1 to 100 nM

Question: What does the source list for `O=C(NS(=O)(=O)C1CCCC1)c1ccc2nc(N3C4CCC3CC(NCc3c(-c5c(Cl)cccc5Cl)noc3C3CC3)C4)sc2c1` (stereo not drawn) [Example 231]?
Answer: Emax: 277%; EC50: < 1 nM

Question: `CCOC(=O)c1ccc2nc(N3[C@@H]4CC[C@H]3C[C@@H](NCc3c(-c5c(Cl)cccc5Cl)noc3C3CC3)C4)sc2c1` [Example 1, ethyl 2-((1R,3R,5S)-3-(((5-cyclopropyl-3-(2,6-dichlorophenyl)isoxazol-4-yl)methyl)amino)-8-azabicyclo[3.2.1]octan-8-yl)benzo[d]thiazole-6-carboxylate] was tested. Which Emax did it give?
Answer: Its Emax is 74%.

Question: What about the EC50 of the same molecule?
Answer: The EC50 was over 1000 nM.

Question: With `O=C(O)c1cc(F)c2nc(N3[C@@H]4CC[C@H]3C[C@@H](NCc3c(-c5c(Cl)cccc5Cl)noc3C3CC3)C4)sc2c1` [Example 4, 2-((1R,3R,5S)-3-(((5-cyclopropyl-3-(2,6-dichlorophenyl)isoxazol-4-yl)methyl)amino)-8-azabicyclo[3.2.1]octan-8-yl)-4-fluorobenzo[d]thiazole-6-carboxylic acid] as the molecule, how does the Emax read?
Answer: Its Emax is 169%.

Question: What about the EC50 of the same molecule?
Answer: The EC50 was under 1 nM.

Question: What does the source list for `CC1(S(=O)(=O)NC(=O)c2cc(F)c3nc(N4C5CCC4CC(NCc4c(-c6ccccc6OC(F)(F)F)noc4C4CC4)C5)sc3c2)CC1` (stereo not drawn) [Example 900-2]?
Answer: Emax: 109%; EC50: 1 to 100 nM

Question: Which results are given for `O=C(NS(=O)(=O)C1CC1)c1cc(F)c2nc(N3C4CCC3CC(NCc3c(-c5c(Cl)cccc5Cl)noc3C3CC3)C4)sc2c1` (stereo not drawn) [Example 298]?
Answer: Emax: 155%; EC50: 1 to 100 nM

Question: `COC(=O)c1ccc2nc(N3C4CCC3CC(NCc3c(-c5c(Cl)cccc5Cl)noc3C3CC3)C4)cnc2c1` (stereo not drawn) [Example 64] was tested. Which Emax did it give?
Answer: The Emax was 40%.

Question: And the EC50?
Answer: The EC50 was 1 to 100 nM.

Question: What does the source list for `O=C(O)c1cc(C2CC2)c2nc(N3C4CCC3CC(NCc3c(-c5ccccc5C(F)(F)F)noc3C3CC3)C4)sc2c1` (stereo not drawn) [Example 1410]?
Answer: Emax: 74.5%; EC50: < 1 nM

Question: With `CN(Cc1c(-c2c(Cl)cccc2Cl)noc1C1CC1)[C@H]1C[C@H]2CC[C@@H](C1)N2c1nc2ccc(C(=O)NS(=O)(=O)C3(C)CC3)cc2s1` [Example 293] as the molecule, how does the Emax read?
Answer: The Emax was 92%.

Question: What about the EC50 of the same molecule?
Answer: Its EC50 is 1 to 100 nM.

Question: Which results are given for `O=C(NS(=O)(=O)C1CC1)c1ccc2nc(N3CCC(NCc4c(-c5c(Cl)cccc5Cl)noc4C4CC4)CC3)sc2c1` [Example 291]?
Answer: Emax: 171%; EC50: 1 to 100 nM

Question: `O=C(NS(=O)(=O)C1CC1)c1ccc2nc(N3C4CCC3CC(NCc3c(-c5ccccc5C(F)(F)F)noc3C3CC3)C4)sc2c1` (stereo not drawn) [Example 1416] was tested. Which Emax did it give?
Answer: Its Emax is 87.5%.

Question: And the EC50?
Answer: Its EC50 is 1 to 100 nM.

Question: With `CN(c1nc2ccc(C(=O)O)cc2s1)C1CCC(OCc2c(-c3c(Cl)cccc3Cl)noc2C2CC2)CC1` (stereo not drawn) [Example 170] as the molecule, how does the Emax read?
Answer: The Emax was 105%.

Question: And the EC50?
Answer: The EC50 was 100 to 1000 nM.

Question: Which results are given for `CC1(S(=O)(=O)NC(=O)c2cc(OC(F)F)c3nc(N4C5CCC4CC(NCc4c(-c6c(Cl)cccc6Cl)noc4C4CC4)C5)sc3c2)CC1` [Example 323, 2-((1R,3r,5S)-3-(((5-cyclopropyl-3-(2,6-dichlorophenyl)isoxazol-4-yl)methyl)amino)-8-azabicyclo[3.2.1]octan-8-yl)-4-(difluoromethoxy)-N-((1-methylcyclopropyl)sulfonyl)benzo[d]thiazole-6-carboxamide]?
Answer: Emax: 150%; EC50: < 1 nM

Question: Which results are given for `O=C(NS(=O)(=O)N1CCCCC1)c1ccc2nc(N3C4CCC3CC(NCc3c(-c5c(Cl)cccc5Cl)noc3C3CC3)C4)sc2c1` (stereo not drawn) [Example 228]?
Answer: Emax: 140%; EC50: 1 to 100 nM

Question: Which Emax does the source give for `CC(C)Oc1cc(C(=O)O)cc2sc(N3C4CCC3CC(NCc3c(-c5ccccc5OC(F)(F)F)noc3C3CC3)C4)nc12` (stereo not drawn) [Example 414] here?
Answer: Its Emax is 121%.

Question: What about the EC50 of the same molecule?
Answer: Its EC50 is under 1 nM.

Question: Which results are given for `O=C(O)c1ccc(N2C3CCC2CC(NCc2c(-c4ccccc4OC(F)(F)F)noc2C2CC2)C3)nc1` (stereo not drawn) [Example 597]?
Answer: Emax: 83.5%; EC50: 1 to 100 nM

Question: Which results are given for `CC1(S(=O)(=O)NC(=O)c2ccc3nc(N4CCC(NCc5c(-c6c(Cl)cccc6Cl)noc5C5CC5)CC4)sc3c2)CC1` [Example 305]?
Answer: Emax: 139%; EC50: 100 to 1000 nM

Question: What does the source list for `CN(C)S(=O)(=O)NC(=O)c1cc(F)c2nc(N3C4CCC3CC(NCc3c(-c5c(Cl)cccc5Cl)noc3C3CC3)C4)sc2c1` (stereo not drawn) [Example 297]?
Answer: Emax: 150%; EC50: < 1 nM

Question: Which results are given for `O=C(O)c1ccc(N2C3CCC2CC(NCc2c(-c4c(Cl)cccc4Cl)noc2C2CC2)C3)nc1` (stereo not drawn) [Example 125]?
Answer: Emax: 86.5%; EC50: 1 to 100 nM

Question: Which results are given for `Cc1c(C(=O)O)ccc2nc(N3C4CCC3CC(NCc3c(-c5c(Cl)cccc5Cl)noc3C3CC3)C4)sc12` (stereo not drawn) [Example 196]?
Answer: Emax: 83.5%; EC50: 1 to 100 nM

Question: With `CC1(S(=O)(=O)NC(=O)c2ccc3nc(N4C5CCC4CC(NCc4c(C6CCC7(CC6)CC7)noc4C4CC4)C5)sc3c2)CC1` (stereo not drawn) [Example 1202] as the molecule, how does the Emax read?
Answer: The Emax was 85.5%.

Question: And the EC50?
Answer: The EC50 was 1 to 100 nM.

Question: For `COC(=O)c1cc2sc(N3C4CCC3CC(NCc3c(-c5c(Cl)cccc5Cl)noc3C3CC3)C4)nc2cc1OC` (stereo not drawn) [Example 200-7], which Emax is on record?
Answer: The Emax was 74.5%.

Question: What about the EC50 of the same molecule?
Answer: Its EC50 is 1 to 100 nM.

Question: For `O=C(O)c1ccc2nc(N3C4CCC3CC(NCc3c(-c5c(Cl)cccc5Cl)noc3C3CC3)C4)oc2c1` (stereo not drawn) [Example 20], which Emax is on record?
Answer: The Emax was 56%.

Question: And the EC50?
Answer: The EC50 was 1 to 100 nM.

Question: For `COC(=O)c1cc2sc(N3C4CCC3CC(NCc3c(-c5c(Cl)cccc5Cl)noc3C3CC3)C4)nc2cc1-c1ccccc1` (stereo not drawn) [Example 200-23], which Emax is on record?
Answer: The Emax was 76.5%.

Question: What about the EC50 of the same molecule?
Answer: Its EC50 is 1 to 100 nM.

Question: For `CCOC(=O)c1ccc2nc(NC3CCN(Cc4c(-c5c(Cl)cccc5Cl)noc4C4CC4)CC3)sc2c1` [Example 183], which Emax is on record?
Answer: The Emax was 119%.

Question: What about the EC50 of the same molecule?
Answer: Its EC50 is over 1000 nM.

Question: Which Emax does the source give for `CCOc1cc(C(=O)OC)cc2sc(N3C4CCC3CC(NCc3c(-c5c(Cl)cccc5Cl)noc3C3CC3)C4)nc12` (stereo not drawn) [Example 200-9] here?
Answer: Its Emax is 81%.

Question: And the EC50?
Answer: The EC50 was 1 to 100 nM.
